From ChEMBL document CHEMBL1149680, “Unique spirocyclopiperazinium salt. Part 4: modification of dispirocyclopiperazinium (DSPZ) salts as analgesics” (Bioorg Med Chem Lett, 2007)

Columns and labels:
Mus musculus [1] = experiment: Analgesic activity in mouse assessed as latency time at 0.04 mmol/kg, sc by hot plate method relative to control; format: functional
Mus musculus [2] = experiment: Analgesic activity against acetic acid-induced writhing in mouse at 0.04 mmol/kg, sc relative to control; format: functional

## C(CN1CC[N+]2(CCCC2)CC1)CN1CC[N+]2(CCCC2)CC1.[Br-].[Br-]
Mus musculus [1]
  Activity: 64.2%
Mus musculus [2]
  inhibition in vivo at 40 µmol/kg: 81%
